For twelve compounds, IC50 results are on record in patent US20260022142A1, “MACROCYCLIC IMMUNOMODULATORS” (Bristol-Myers Squibb Company, priority 2022, published 2026).

The structures appear in SMILES notation. Numbered stars: 1 amine (or outer) side, 2 acyl side, 3 side chain; on linkers, the order of the positions; unused ones are H or OH. Bridge positions count the residues as written; N and C are the ends. Square brackets hold non-standard residues; d marks the D form. Peptide text beside a SMILES is read from it. * marks the point of attachment. ξ: configuration not given here. Bip = N[C@@H](Cc1ccc(-c2ccccc2)cc1)C(=O)O; Phe(3-Me) = Cc1cccc(C[C@H](N)C(=O)O)c1; Val(3-OH) = CC(C)(O)[C@H](N)C(=O)O; X12 = CC(N)[C@H](N[*:1])C(=O)[*:2]; Cha = N[C@@H](CC1CCCCC1)C(=O)O; Cit = NC(=O)NCCC[C@H](N)C(=O)O; Thr(3ξ) = CC(O)[C@H](N)C(=O)O; Tle = CC(C)(C)[C@H](N)C(=O)O; Carboxymethyl = O=C(O)C*; Orn = NCCC[C@H](N)C(=O)O; Aun = NCCCCCCCCCCC(=O)O; Dab = NCC[C@H](N)C(=O)O; Dap = NC[C@H](N)C(=O)O; Piv = CC(C)(C)C(=O)*

The target of the assay is T1, PD-1/PD-L1 interaction (PE-labeled human PD-L1-Ig binding to Jurkat cell line over-expressing human PD-1) (Homo sapiens, UniProt Q15116).
T1 construct: expressed in transfected cells; host or cells: Jurkat
T1 sequence (Q15116 25-288): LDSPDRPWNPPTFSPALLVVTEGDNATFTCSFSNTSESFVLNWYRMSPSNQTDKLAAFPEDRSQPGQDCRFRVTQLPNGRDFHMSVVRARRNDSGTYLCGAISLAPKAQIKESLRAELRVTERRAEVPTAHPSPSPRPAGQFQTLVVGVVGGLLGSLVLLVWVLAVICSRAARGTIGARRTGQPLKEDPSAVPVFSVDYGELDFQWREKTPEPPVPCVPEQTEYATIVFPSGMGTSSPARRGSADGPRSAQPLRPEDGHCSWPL
The assay is described as follows: Jurkat-PD-1 Cell Binding High-Content Screening Assay (CBA). Particulars: Jurkat cell line over-expressing human PD-1; PE-labeled PD-L1-Ig 20 nM final; read-out: Jurkat hPD1-PDL1 IC50. The format is cell-based. The gist of the method: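 Binding of fluorescent PD-L1-Ig (20 nM final) to Jurkat-PD-1 cells was measured by automated imaging after 1 h, following a 2 h compound pre-treatment at 37° C.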
As for `Cc1cccc(C[C@@H]2NC(=O)[C@H](CC(=O)O)NC(=O)[C@H](Cc3ccc(OCC(=O)O)cc3)NC(=O)[C@H](CCCNC(=N)N)NC(=O)CSC[C@@H](C(=O)N[C@@H](CCN)C(=O)NCCCCCCCCCCC(=O)O)NC(=O)[C@H](C(C)O)NC(=O)[C@H](C(C)(C)O)NC(=O)[C@H](CC3CCCCC3)NC(=O)[C@H](CCN)NC(=O)[C@@H](CC(C)C)NC(=O)[C@H](CCCN)NC(=O)[C@H](Cc3ccc(OCC(=O)O)cc3)NC(=O)[C@H](Cc3ccc(-c4ccccc4)cc3)NC(=O)[C@H](Cc3ccc(OCC(=O)O)cc3)NC2=O)c1` (stereo partly drawn) [Compound 3513] ({CH2CO}-RY(Carboxymethyl)D[Phe(3-Me)]Y(Carboxymethyl)[Bip]Y(Carboxymethyl)[Orn][dL][Dab][Cha][Val(3-OH)][Thr(3ξ)]C[Dab][Aun]-OH; thioether N-14), the IC50 turned out to be 10.8 nM.
The same measure for `Cc1cccc(C[C@@H]2NC(=O)[C@H](CC(=O)O)NC(=O)[C@H](Cc3ccc(OCC(=O)O)cc3)NC(=O)[C@H](CCCNC(=N)N)NC(=O)CSC[C@@H](C(=O)N[C@H](CC(N)=O)C(=O)NCCCCCCCCCCC(=O)O)NC(=O)[C@H](C(C)O)NC(=O)[C@H](CO)NC(=O)[C@H](CC3CCCCC3)NC(=O)[C@H](CCN)NC(=O)[C@@H](CC(C)C)NC(=O)[C@H](CCCN)NC(=O)[C@H](Cc3ccc(OCC(=O)O)cc3)NC(=O)[C@H](Cc3ccc(-c4ccccc4)cc3)NC(=O)[C@H](Cc3ccc(OCC(=O)O)cc3)NC2=O)c1` (stereo partly drawn) [Compound 3515] ({CH2CO}-RY(Carboxymethyl)D[Phe(3-Me)]Y(Carboxymethyl)[Bip]Y(Carboxymethyl)[Orn][dL][Dab][Cha]S[Thr(3ξ)]C[dN][Aun]-OH; thioether N-14): 169 nM; for `Cc1cccc(C[C@@H]2NC(=O)[C@H](CC(=O)O)NC(=O)[C@H](Cc3ccc(OCC(=O)O)cc3)NC(=O)[C@H](CCCNC(=N)N)NC(=O)CSC[C@@H](C(=O)N[C@@H](CCN)C(=O)NCCCCCCCCCCC(=O)O)NC(=O)[C@H](CCC(N)=O)NC(=O)[C@H](CO)NC(=O)[C@H](CC3CCCCC3)NC(=O)[C@H](CCN)NC(=O)[C@@H](CC(C)C)NC(=O)[C@H](CCCN)NC(=O)[C@H](Cc3ccc(OCC(=O)O)cc3)NC(=O)[C@H](Cc3ccc(-c4ccccc4)cc3)NC(=O)[C@H](Cc3ccc(OCC(=O)O)cc3)NC2=O)c1` [Compound 3516] ({CH2CO}-RY(Carboxymethyl)D[Phe(3-Me)]Y(Carboxymethyl)[Bip]Y(Carboxymethyl)[Orn][dL][Dab][Cha]SQC[Dab][Aun]-OH; thioether N-14): 10.3 nM; for `Cc1cccc(C[C@@H]2NC(=O)[C@H](CC(=O)O)NC(=O)[C@H](Cc3ccc(OCC(=O)O)cc3)NC(=O)[C@H](CCNC(=O)C(C)(C)C)NC(=O)CSC[C@@H](C(=O)N[C@@H](CCN)C(=O)NCCCCCCCCCCC(=O)O)NC(=O)[C@H](C(C)O)NC(=O)[C@H](C(C)(C)C)NC(=O)[C@H](CC3CCCCC3)NC(=O)[C@H](CCN)NC(=O)[C@@H](CC(C)C)NC(=O)[C@H](CCCN)NC(=O)[C@H](Cc3ccc(OCC(=O)O)cc3)NC(=O)[C@H](Cc3ccc(-c4ccccc4)cc3)NC(=O)[C@H](Cc3ccc(O)cc3)NC2=O)c1` (stereo partly drawn) [Compound 3517] ({CH2CO}-[Dab](Piv)Y(Carboxymethyl)D[Phe(3-Me)]Y[Bip]Y(Carboxymethyl)[Orn][dL][Dab][Cha][Tle][Thr(3ξ)]C[Dab][Aun]-OH; thioether N-14): 27.9 nM.
The same measure for `Cc1cccc(C[C@@H]2NC(=O)[C@H](CC(=O)O)NC(=O)[C@H](Cc3ccc(OCC(=O)O)cc3)NC(=O)[C@H](CNC(=O)C(C)(C)C)NC(=O)CSC[C@@H](C(=O)N[C@@H](CC(N)=O)C(=O)NCCCCCCCCCCC(=O)O)NC(=O)[C@H](C(C)O)NC(=O)[C@H](C(C)(C)C)NC(=O)[C@H](CC3CCCCC3)NC(=O)[C@H](CCN)NC(=O)[C@@H](CC(C)C)NC(=O)[C@H](CCCN)NC(=O)[C@H](Cc3ccc(OCC(=O)O)cc3)NC(=O)[C@H](Cc3ccc(-c4ccccc4)cc3)NC(=O)[C@H](Cc3ccc(O)cc3)NC2=O)c1` (stereo partly drawn) [Compound 3518] ({CH2CO}-[Dap](Piv)Y(Carboxymethyl)D[Phe(3-Me)]Y[Bip]Y(Carboxymethyl)[Orn][dL][Dab][Cha][Tle][Thr(3ξ)]CN[Aun]-OH; thioether N-14): 35.7 nM.
The same measure for `Cc1cccc(C[C@@H]2NC(=O)[C@H](CC(=O)O)NC(=O)[C@H](Cc3ccc(OCC(=O)O)cc3)NC(=O)[C@H](C(C)N)NC(=O)CSC[C@@H](C(=O)N[C@@H](CCN)C(=O)NCCCCCCCCCCC(=O)O)NC(=O)[C@H](CCC(N)=O)NC(=O)[C@H](C(C)O)NC(=O)[C@H](CC3CCCCC3)NC(=O)[C@H](CCN)NC(=O)[C@@H](CC(C)C)NC(=O)[C@H](CCCN)NC(=O)[C@H](Cc3ccc(OCC(=O)O)cc3)NC(=O)[C@H](Cc3ccc(-c4ccccc4)cc3)NC(=O)[C@H](Cc3ccc(OCC(=O)O)cc3)NC2=O)c1` (stereo partly drawn) [Compound 3519] ({CH2CO}-[X12]Y(Carboxymethyl)D[Phe(3-Me)]Y(Carboxymethyl)[Bip]Y(Carboxymethyl)[Orn][dL][Dab][Cha][Thr(3ξ)]QC[Dab][Aun]-OH; thioether N-14): 10.4 nM; for `Cc1cccc(C[C@@H]2NC(=O)[C@H](CC(=O)O)NC(=O)[C@H](Cc3ccc(OCC(=O)O)cc3)NC(=O)[C@H](C(C)O)NC(=O)CSC[C@@H](C(=O)N[C@H](CC(N)=O)C(=O)NCCCCCCCCCCC(=O)O)NC(=O)[C@H](C(C)(C)C)NC(=O)[C@H](CO)NC(=O)[C@H](CC3CCCCC3)NC(=O)[C@H](CCN)NC(=O)[C@@H](CC(C)C)NC(=O)[C@H](CCCN)NC(=O)[C@H](Cc3ccc(OCC(=O)O)cc3)NC(=O)[C@H](Cc3ccc(-c4ccccc4)cc3)NC(=O)[C@H](Cc3ccc(O)cc3)NC2=O)c1` (stereo partly drawn) [Compound 3520] ({CH2CO}-[Thr(3ξ)]Y(Carboxymethyl)D[Phe(3-Me)]Y[Bip]Y(Carboxymethyl)[Orn][dL][Dab][Cha]S[Tle]C[dN][Aun]-OH; thioether N-14): 608 nM.
On to `Cc1cccc(C[C@@H]2NC(=O)[C@H](CC(=O)O)NC(=O)[C@H](Cc3ccc(OCC(=O)O)cc3)NC(=O)[C@H](CCCNC(=N)N)NC(=O)CSC[C@@H](C(=O)N[C@H](CC(N)=O)C(=O)NCCCCCCCCCCC(=O)O)NC(=O)[C@H](C(C)O)NC(=O)[C@H](C(C)O)NC(=O)[C@H](CC3CCCCC3)NC(=O)[C@H](CCN)NC(=O)[C@@H](CC(C)C)NC(=O)[C@H](CCCN)NC(=O)[C@H](CCCNC(N)=O)NC(=O)[C@H](Cc3ccc(-c4ccccc4)cc3)NC(=O)[C@H](C(C)C)NC2=O)c1` (stereo partly drawn) [Compound 3522] ({CH2CO}-RY(Carboxymethyl)D[Phe(3-Me)]V[Bip][Cit][Orn][dL][Dab][Cha][Thr(3ξ)][Thr(3ξ)]C[dN][Aun]-OH; thioether N-14), for which the IC50 was 40.8 nM.
The same measure for `Cc1cccc(C[C@@H]2NC(=O)[C@H](CC(=O)O)NC(=O)[C@H](Cc3ccc(OCC(=O)O)cc3)NC(=O)[C@H](CCCNC(=N)N)NC(=O)CSC[C@@H](C(=O)N[C@H](CC(N)=O)C(=O)NCCCCCCCCCCC(=O)O)NC(=O)[C@H](C(C)O)NC(=O)[C@H](C(C)O)NC(=O)[C@H](CC3CCCCC3)NC(=O)[C@H](CCN)NC(=O)[C@@H](CC(C)C)NC(=O)[C@H](CCCN)NC(=O)[C@H](Cc3ccc(OCC(=O)O)cc3)NC(=O)[C@H](Cc3ccc(-c4ccccc4)cc3)NC(=O)[C@H](Cc3ccc(OCC(=O)O)cc3)NC2=O)c1` (stereo partly drawn) [Compound 3523] ({CH2CO}-RY(Carboxymethyl)D[Phe(3-Me)]Y(Carboxymethyl)[Bip]Y(Carboxymethyl)[Orn][dL][Dab][Cha][Thr(3ξ)][Thr(3ξ)]C[dN][Aun]-OH; thioether N-14): 121 nM.
Then `Cc1cccc(C[C@@H]2NC(=O)[C@H](CC(=O)O)NC(=O)[C@H](Cc3ccc(OCC(=O)O)cc3)NC(=O)[C@H](CCCNC(=N)N)NC(=O)CSC[C@@H](C(=O)N[C@H](CC(N)=O)C(=O)NCCCCCCCCCCC(=O)O)NC(=O)[C@H](C(C)O)NC(=O)[C@H](C(C)O)NC(=O)[C@H](CC3CCCCC3)NC(=O)[C@H](CCN)NC(=O)[C@@H](CC(C)C)NC(=O)[C@H](CCCN)NC(=O)[C@H](Cc3ccc(OCC(=O)O)cc3)NC(=O)[C@H](Cc3ccc(-c4ccccc4)cc3)NC(=O)[C@H](Cc3ccc(O)cc3)NC2=O)c1` (stereo partly drawn) [Compound 3524] ({CH2CO}-RY(Carboxymethyl)D[Phe(3-Me)]Y[Bip]Y(Carboxymethyl)[Orn][dL][Dab][Cha][Thr(3ξ)][Thr(3ξ)]C[dN][Aun]-OH; thioether N-14), with 40.8 nM; and `Cc1cccc(C[C@@H]2NC(=O)[C@H](CC(=O)O)NC(=O)[C@H](Cc3ccc(OCC(=O)O)cc3)NC(=O)[C@H](CCCNC(=N)N)NC(=O)CSC[C@@H](C(=O)N[C@H](CC(N)=O)C(=O)NCCCCCCCCCCC(=O)O)NC(=O)[C@H](C(C)O)NC(=O)[C@H](CO)NC(=O)[C@H](CC3CCCCC3)NC(=O)[C@H](CCN)NC(=O)[C@@H](CC(C)C)NC(=O)[C@H](CCCN)NC(=O)[C@H](Cc3ccc(OCC(=O)O)cc3)NC(=O)[C@H](Cc3ccc(-c4ccccc4)cc3)NC(=O)[C@H](Cc3c[nH]c4ccccc34)NC2=O)c1` (stereo partly drawn) [Compound 3525] ({CH2CO}-RY(Carboxymethyl)D[Phe(3-Me)]W[Bip]Y(Carboxymethyl)[Orn][dL][Dab][Cha]S[Thr(3ξ)]C[dN][Aun]-OH; thioether N-14), with 346 nM; and `Cc1cccc(C[C@@H]2NC(=O)[C@H](CC(=O)O)NC(=O)[C@H](Cc3ccc(OCC(=O)O)cc3)NC(=O)[C@H](CCCNC(=N)N)NC(=O)CSC[C@@H](C(=O)N[C@H](CC(N)=O)C(=O)NCCCCCCCCCCC(=O)O)NC(=O)[C@H](CO)NC(=O)[C@H](C(C)O)NC(=O)[C@H](CC3CCCCC3)NC(=O)[C@H](CCN)NC(=O)[C@@H](CC(C)C)NC(=O)[C@H](CCCN)NC(=O)[C@H](Cc3ccc(OCC(=O)O)cc3)NC(=O)[C@H](Cc3ccc(-c4ccccc4)cc3)NC(=O)[C@H](Cc3ccc(OCC(=O)O)cc3)NC2=O)c1` (stereo partly drawn) [Compound 3526] ({CH2CO}-RY(Carboxymethyl)D[Phe(3-Me)]Y(Carboxymethyl)[Bip]Y(Carboxymethyl)[Orn][dL][Dab][Cha][Thr(3ξ)]SC[dN][Aun]-OH; thioether N-14), with 112 nM.
